From US20060069038A1, “Irreversible caspase-3 inhibitors as active site probes” (priority 2003, published 2006)

Legend:
[1] = target: T1, purified recombinant human caspase-3 (Homo sapiens, UniProt P42574); assay: DEVD-AMC cleavage activity with recombinant human caspase-3 pre-incubated with inhibitor; assay type: biochemical; conditions: purified recombinant caspase-3 pre-incubated with increasing amounts of M791
T1 construct: Active site shared between large and small caspase subunit
T1 sequence (P42574 29-175 limits assumed): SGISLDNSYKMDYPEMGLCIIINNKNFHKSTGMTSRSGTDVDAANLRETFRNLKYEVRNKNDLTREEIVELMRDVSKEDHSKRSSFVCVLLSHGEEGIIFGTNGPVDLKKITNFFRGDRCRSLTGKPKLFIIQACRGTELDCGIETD
T1 sequence (P42574 176-277 limits assumed): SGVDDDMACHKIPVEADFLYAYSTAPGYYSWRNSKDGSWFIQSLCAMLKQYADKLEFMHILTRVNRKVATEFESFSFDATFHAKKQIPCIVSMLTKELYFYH
Method: (§1) FIG. 3. Potency assessment caspase inhibitors by [^125]-M808 labeling and by DEVD-AMC cleavage activity. A, B-Caspase inhibitor titration and [^125]-M808 labeling with purified recombinant human caspase-3. A-M791 with 5 minute labeling reaction and M791 with 60 minute labeling reaction. In A, the indicated IC50 was defined as the concentration of M791 that reduced the intensity of [^125I]-M808-labeled p17 subunit of caspase-3 by 50%. B-Caspase inhibitor titration and DEVD-AMC cleavage activity with recombinant human caspase-3 that had been incubated with indicated concentration of M791. Under the fluorogenic assay conditions Ki=IC50/2.
Tissues (rat liver, kidney, brain, thymus, mouse thymus) were either frozen or processed within 20 minutes of their removal. Rat tissues and cultured cells were homogenized in ice cold cell lysis buffer (50 mM Tris-Cl pH 7.5, 2 mM EDTA, 1% NP-40) supplemented with 5 mM DTT and Complete protease inhibitor cocktail (Roche). Thymi from mice injected with [^125I]-M808 were homogenized in lysis buffer supplemented with 25 μM of M808. Nuclear debris was removed by centrifugation at 13000 rpm for 10 min and the soluble fraction quantitated by Bradford assay (Bio-Rad). Caspase-3 like activity was determined with the fluorogenic substrate Ac-DEVD-AMC as described by Roy et al. (2001) Proc. Nat. Acad. Sci. USA 98: 6132-6137. […]

[2] = target: T1, purified recombinant human caspase-3; assay: Caspase inhibitor titration by [125I]-M808 labeling of purified recombinant human caspase-3 (SDS-PAGE); assay type: binding
Method: as §1
The determination of caspase activity by [^125I]-M808 labeling was performed by pre-incubating purified recombinant human caspase-3 with indicated amounts of caspase inhibitor (M791) or vehicle (DMSO), for 1 hour at 25° C. in ICE buffer III (50 mM Hepes-KOH pH 7.0, 0.1% CHAPS, 10% sucrose, 2 mM EDTA), supplemented with 5 mM DTT. [^125I]-M808 was added to a final concentration of 1.25 μM and incubated for 5 min at 25° C. Active caspases in tissue or cell extracts were labeled by incubating 60-80 μg of lysate with [^125I]-M808 for 15 minutes at 25° C. Labeling was stopped by addition of Laemli buffer (2% SDS; 0.35 M O-mercaptoethanol; 50 mM Tris-Cl pH 6.8; 10% glycerol; 0.05% bromophenol blue) and by heating at 95° C. for 5 minutes. […]

- IC50 [1]: 0.6 nM
- IC50 ([2]; [125I]-M808 added for 5 minutes, read-out: IC50 by [125I]-M808 labeling (50% reduction of labeled p17 subunit)): 0.45 nM
- IC50 ([2]; incubating with [125I]-M808 for 60 minutes instead of 5, read-out: apparent IC50 by [125I]-M808 labeling): 1 nM
Compound: COc1ccc(-c2nc(C)no2)cc1CC(=O)N[C@H](C(=O)N[C@@H](CC(=O)O)C(=O)CSCc1ccccc1)C(C)C [Example M791, (3S)-5-(benzylthio)-3-[(N-{[2-methoxy-5-(3-methyl-1,2,4-oxadiazol-5-yl)phenyl]acetyl}-L-valyl)amino]4-oxopentanoic acid]
